Values after ≈ are worked out from the molar mass of the structure shown. Values belong to the molecule of their own block, whether it stands above or below them.
Experiments:
[1] = Solubility of organic compounds in supporting electrolyte at room temperature; type: physicochemical; conditions: for solubility: thermodynamic from solid
Excerpt: The last recorded amount was recognized as the solubility of the organics.

[2] = Cyclic voltammetry in three-electrode cell (glassy carbon / Pt foil / Ag wire); type: physicochemical
Excerpt: FIGS. 2a and 2b compare cyclic voltammetry curves of 0.1 M 2-methoxyhydroquinone in pure water and other aqueous ionic liquid, aqueous lithium salt (molality: 10 m), with and without the addition of 1 M HCl. Potential sweep rate: 50 mV s^−1. Working electrode: glassy carbon; Counter electrode: Pt foil; Reference electrode: Ag wire.
FIG. 5a depicts the chemical structure of 2-[(2,5-dihydroxyphenyl)sulfanyl]ethan-1-aminium chloride. FIGS. 5b and 5c show the cyclic voltammetry curves of 0.1 M 2-[(2,5-dihydroxyphenyl) sulfanyl]ethan-1-amonium chloride in pure water and in 1 M HCl. Potential sweep rate: 20 mV s^−1. Working electrode: glassy carbon; Counter electrode: Pt foil; Reference electrode: Ag wire.
FIGS. 6a and 6b compare the cyclic voltammetry curves of 0.1 M 2-[(2,5-dihydroxyphenyl) sulfanyl]ethan-1-amonium chloride in concentrated LiTFSI and BMImCl without and with the addition of 1 M HCl. Potential sweep rate: 20 mV s^−1. Working electrode: glassy carbon; Counter electrode: Pt foil; Reference electrode: Ag wire.
CV measurements were performed in a three-electrode cell consisting of a glassy carbon rod working electrode, a platinum foil counter electrode and a silver wire quasi-reference electrode. CV measurements of 2-methoxyhydroquinone in water (FIG. 2a) and different aqueous ionic liquids and salt (FIG. 2b) were performed.
For the CV measurement in water, KCl was added as supporting salt. […] The average redox potential in water is 0.27 V vs. Ag but with large peak separation of 0.64 V (FIG. 2a).

[3] = 10 m BMImCl-H2O, aqueous with cosolvent or surfactant or cyclodextrin, BMImCl—H2O (10 m / concentrated), neutral, no additive
[4] = 10 m LiTFSI-H2O, aqueous with cosolvent or surfactant or cyclodextrin, LiTFSI—H2O (10 m), neutral, no additive
[5] = 0.1 M in 10 m BMImCl—H2O, 50 mV s^−1
[6] = 0.1 M in 10 m LiTFSI—H2O, 50 mV s^−1
[7] = 0.1 M in 10 m TBACl—H2O, 50 mV s^−1
[8] = 0.1 M in water, KCl supporting salt, 50 mV s^−1
[9] = BMImCl—H2O, acidic conditions (1 M HCl)
[10] = LiTFSI—H2O, acidic conditions (1 M HCl)
[11] = TBACl—H2O, acidic conditions (1 M HCl)
[12] = water, acidic conditions (1 M HCl)
[13] = 10 m BMImCl-H2O, aqueous with cosolvent or surfactant or cyclodextrin, 10 m BMImCl-H2O, a: without additive
[14] = 10 m LiTFSI-H2O, aqueous with cosolvent or surfactant or cyclodextrin, 10 m LiTFSI-H2O, a: without additive
[15] = 10 m TBACl-H2O, aqueous with cosolvent or surfactant or cyclodextrin, 10 m TBACl-H2O, a: without additive
[16] = water, H2O, a: without additive
[17] = 0.1 M in BMImCl—H2O, 20 mV s^−1
[18] = 0.1 M in LiTFSI—H2O, 20 mV s^−1

Compound: Cl.NCCSc1cc(O)ccc1O [2-[(2,5-dihydroxyphenyl)sulfanyl]ethan-1-aminium chloride]
solubility [1, 3]: 1200 mM | solubility ([1]; acidic BMImCl-H2O, aqueous with cosolvent or surfactant or cyclodextrin, acidic BMImCl—H2O): 900 mM | solubility ([1]; pure water): 2000 mM | average oxidation and reduction potential ([2]; 0.1 M in BMImCl—H2O with addition of HCl (1 M), 20 mV s^−1): 0.61 V | average oxidation and reduction potential [2, 17]: 0.50 V vs. Ag | peak separation [2, 17]: 0.61 V | reduction of peak separation on addition of HCl ([2]; 0.1 M in BMImCl—H2O, with vs. without HCl (1 M)): 0.07 V | oxidation peak [2, 18]: 0.70 V vs. Ag | reduction peak [2, 18]: 0.08 V vs. Ag | redox reversibility ([2]; 0.1 M in pure water and in 1 M HCl, 20 mV s^−1): poor redox reversibility | stability and reversibility ([2]; in aqueous ionic liquids or lithium salt): excellent stability and reversibility | chemical and electrochemical stability ([2]; in water): chemically and electrochemically instable

Compound: COc1cc(O)cc(OC)c1O [2,6-dimethoxyhydroquinone]
solubility ([1]; 10 m BMImCl-H2O with 1 M HCl, aqueous with cosolvent or surfactant or cyclodextrin, 10 m BMImCl-H2O, b: with 1 M HCl): < 100 mM | solubility [1, 13]: < 100 mM | solubility ([1]; 10 m LiTFSI-H2O with 1 M HCl, aqueous with cosolvent or surfactant or cyclodextrin, 10 m LiTFSI-H2O, b: with 1 M HCl): 500 mM (≈ 85.1 mg/mL) | solubility [1, 14]: 700 mM (≈ 119 mg/mL) | solubility [1, 4]: 700 mM (≈ 119 mg/mL) | solubility ([1]; 10 m TBACl-H2O with 1 M HCl, aqueous with cosolvent or surfactant or cyclodextrin, 10 m TBACl-H2O, b: with 1 M HCl): 100 mM (≈ 17 mg/mL) | solubility [1, 15]: 200 mM (≈ 34 mg/mL) | Solubility (in words) ([1]; BMImCl—H2O): limited | Solubility (in words) ([1]; TBACl—H2O): limited | solubility ([1]; acidic LiTFSI-H2O, aqueous with cosolvent or surfactant or cyclodextrin, acidic LiTFSI—H2O): 500 mM (≈ 85.1 mg/mL) | Solubility (in words) ([1]; water): insoluble | solubility ([1]; water with 1 M HCl, aqueous buffer, H2O, b: with 1 M HCl): < 100 mM | solubility [1, 16]: < 100 mM

Second part, the molecule after the results:

solubility [1, 3]: 6000 mM (≈ 841 mg/mL) | solubility [1, 4]: 4200 mM (≈ 589 mg/mL) | solubility ([1]; pure water, water): 1800 mM (≈ 252 mg/mL) | average redox potential [2, 5]: 0.51 V vs. Ag | peak separation [2, 5]: 0.53 V | average redox potential [2, 6]: 0.38 V vs. Ag | peak separation [2, 6]: 0.48 V | average redox potential [2, 7]: 0.54 V vs. Ag | polarization (peak separation) [2, 7]: 0.87 V | average redox potential [2, 8]: 0.27 V vs. Ag | peak separation [2, 8]: 0.64 V | peak separation ([2]; 10 m BMImCl—H2O with 1 M H3PO4): 0.42 V | average redox potential ([2]; 10 m BMImCl—H2O with H3PO4 from 1 M to 3 M): 0.50 V vs. Ag | peak separation [2, 9]: 0.30 V | redox potential [2, 9]: 0.58 V vs. Ag | peak separation [2, 10]: 0.38 V | redox potential [2, 10]: 0.55 V vs. Ag | peak separation [2, 11]: 0.54 V | redox potential [2, 11]: 0.58 V vs. Ag | peak separation [2, 12]: 0.40 V | redox potential [2, 12]: 0.35 V vs. Ag
Compound: COc1cc(O)ccc1O [2-methoxyhydroquinone]

solubility [1, 13]: 4000 mM (≈ 609 mg/mL) | solubility [1, 3]: 4000 mM (≈ 609 mg/mL) | solubility [1, 14]: 4000 mM (≈ 609 mg/mL) | solubility [1, 4]: 4000 mM (≈ 609 mg/mL) | solubility [1, 15]: 4000 mM (≈ 609 mg/mL) | solubility ([1]; TBACl-H2O, aqueous with cosolvent or surfactant or cyclodextrin, TBACl—H2O): 4000 mM (≈ 609 mg/mL) | Solubility (in words) ([1]; water): slightly soluble | solubility [1, 16]: < 100 mM
Compound: COc1cc(C=O)ccc1O [vanillin, Vanillin]

Solubility (in words) ([1]; 5 m LiTFSI—H2O): poor | solubility [1, 13]: < 100 mM | solubility ([1]; 10 m LiTFSI with triethanolamine, aqueous with cosolvent or surfactant or cyclodextrin, 10 m LiTFSI with 0.3 g triethanolamine per milliliter): 300 mM | solubility [1, 14]: 500 mM | solubility [1, 4]: 500 mM | solubility ([1]; 10 m TBACl-H2O with triethanolamine, aqueous with cosolvent or surfactant or cyclodextrin, 10 m TBACl-H2O, c: with 0.3 g triethanolamine per mL solvent): < 100 mM | solubility [1, 15]: < 100 mM | Solubility (in words) ([1]; 15 m LiTFSI—H2O): soluble | solubility ([1]; supporting electrolyte, aqueous with cosolvent or surfactant or cyclodextrin, 10 m BMImCl-H2O, c: with 0.3 g triethanolamine per mL solvent): < 100 mM | solubility ([1]; supporting electrolyte, aqueous with cosolvent or surfactant or cyclodextrin, 10 m LiTFSI-H2O, c: with 0.3 g triethanolamine per mL solvent): 300 mM | solubility ([1]; supporting electrolyte, aqueous with cosolvent or surfactant or cyclodextrin, H2O, c: with 0.3 g triethanolamine per mL solvent): < 100 mM | solubility [1, 16]: < 100 mM
Compound: CC[N+](CC)(CC)Cc1ccc2c(c1)C(=O)c1ccccc1C2=O.[Br-] [2-methanaminium-N,N,N-triethyl-9,10-anthraquinone bromide]

From patent US20210043958A1, “AQUEOUS COMPOSITION AS ELECTROLYTE COMPRISING IONIC LIQUIDS OR LITHIUM SALTS” (KIST EUROPE FORSCHUNGSGESELLSCHAFT MBH, priority 2018, published 2021)
